Measurements from BindingDB's records for doi:10.1002/cbic.201000376 (Gyeongsang National University, 2010).

Molecular target: Alpha-glucosidase MAL12 (Saccharomyces cerevisiae (strain ATCC 204508 / S288c), UniProt P53341)
Assay: Inhibition Assay
Description: All enzymatic activities were determined by using the appropriate substrate (p-nitrophenyl-alpha-D-glucopyranoside, p-nitrophenyl-beta-D-gulcopyranoside, o-nitrophenyl-alpha-D-manno-pyranoside, p-nitrohenyl-alpha-D-galactopyranoside and strach at the pH or each enzyme.

Chain of Alpha-glucosidase MAL12 (P53341 whole entry): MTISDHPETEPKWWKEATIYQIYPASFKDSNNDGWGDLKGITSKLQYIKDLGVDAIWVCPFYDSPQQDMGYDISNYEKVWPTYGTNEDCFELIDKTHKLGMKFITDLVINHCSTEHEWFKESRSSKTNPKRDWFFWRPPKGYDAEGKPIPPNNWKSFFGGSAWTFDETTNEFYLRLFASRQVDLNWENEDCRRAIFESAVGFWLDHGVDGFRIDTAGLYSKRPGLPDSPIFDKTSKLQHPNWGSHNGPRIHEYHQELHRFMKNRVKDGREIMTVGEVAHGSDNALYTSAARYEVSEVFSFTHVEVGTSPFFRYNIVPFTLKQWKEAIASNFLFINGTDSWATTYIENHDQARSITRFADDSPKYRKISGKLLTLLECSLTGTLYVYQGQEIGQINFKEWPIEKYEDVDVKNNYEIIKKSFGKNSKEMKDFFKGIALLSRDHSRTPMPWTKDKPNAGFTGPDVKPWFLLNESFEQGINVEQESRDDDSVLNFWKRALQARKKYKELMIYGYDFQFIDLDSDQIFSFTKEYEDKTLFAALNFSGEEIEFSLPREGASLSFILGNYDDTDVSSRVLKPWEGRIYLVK

IC50 [µM]	Ki [µM]	SMILES
> 200		Nc1ccc(/C=C/c2ccc(O)cc2)cc1
19.5	10.5	COc1ccc(NC(=O)Nc2ccc(/C=C/c3ccc(O)c(O)c3)cc2)cc1 [Urea derivative, 7]
68.5		Nc1ccc(NC(=O)Nc2ccc(/C=C/c3ccc(O)c(O)c3)cc2)cc1 [Urea derivative, 8]
8.4	3.2	O=C(Nc1ccc(/C=C/c2ccc(O)c(O)c2)cc1)Nc1ccc(F)cc1F [Urea derivative, 12]
29.1	17	O=C(Nc1ccccc1)Nc1ccc(/C=C/c2ccc(O)cc2)cc1 [Urea derivative, 14]
60.1		COc1ccc(NC(=O)Nc2ccc(/C=C/c3ccc(O)cc3)cc2)cc1 [Urea derivative, 15]
18.5	9.4	O=C(Nc1ccc(/C=C/c2ccc(O)cc2)cc1)Nc1ccc(F)cc1F [Urea derivative, 16]
58.8		O=C(Nc1ccccc1)Nc1ccc(/C=C/c2cc(O)cc(O)c2)cc1 [Urea derivative, 17]

The remaining lines, values behind:

SMILES	IC50 [µM]	Ki [µM]
Oc1ccc(/C=C/c2cc(O)cc(O)c2)cc1 [5-[(E)-2-(4-hydroxyphenyl)ethenyl]benzene-1,3-diol]	26.4	21.5
CNc1ccc(/C=C/c2ccc(O)c(O)c2)cc1 [Stilbene derivative, 4]	> 200	
CC(=O)Nc1ccc(/C=C/c2ccc(O)c(O)c2)cc1 [Stilbene derivative, 5]	> 200	
O=C(Nc1ccccc1)Nc1ccc(/C=C/c2ccc(O)c(O)c2)cc1 [Urea derivative, 6]	42.1	10.6
Cc1ccc(NC(=O)Nc2ccc(/C=C/c3ccc(O)c(O)c3)cc2)cc1 [Urea derivative, 9]	63.6	
O=C(Nc1ccc(/C=C/c2ccc(O)c(O)c2)cc1)Nc1ccc(C(F)(F)F)cc1 [Urea derivative, 10]	28.8	12.1
O=C(Nc1ccc(F)cc1)Nc1ccc(/C=C/c2ccc(O)c(O)c2)cc1 [Urea derivative, 11]	19.8	7.2
O=C(Nc1ccc(Cl)cc1)Nc1ccc(/C=C/c2ccc(O)c(O)c2)cc1 [Urea derivative, 13]	14.3	4.6
COc1ccc(NC(=O)Nc2ccc(/C=C/c3cc(O)cc(O)c3)cc2)cc1 [Urea derivative, 18]	105	
O=C(Nc1ccc(/C=C/c2cc(O)cc(O)c2)cc1)Nc1ccc(F)cc1F [Urea derivative, 19]	64.3	
